Source: patent US20240279281A1, “Peptide Inhibitors of Interleukin-23 Receptor” (Janssen Pharmaceutica NV, priority 2023, published 2024)
Starred links: 1 amine or outer side, 2 acyl side, 3 side chain; linkers in the order of their positions; H or OH if unused. Positions of bridges follow the written chain, without caps; N, C: chain ends. Non-standard residues stand in square brackets, D forms with d. Residues, ends and D or L forms follow the SMILES beside them. *: point of attachment. Trp(7-(3-AcNH-Ph)) = CC(=O)Nc1cccc(-c2cccc3c(C[C@H](N)C(=O)O)c[nH]c23)c1; Me3N+(CH2)2O(CH2)2O(CH2)2CO = C[N+](C)(C)CCOCCOCCC(=O)*; NH(CH2CH2O)2CH2CH2NMe3+ = C[N+](C)(C)CCOCCOCCN*; 2Nal(6-OH) = N[C@@H](Cc1ccc2cc(O)ccc2c1)C(=O)O; Trp(7-Me) = Cc1cccc2c(C[C@H](N)C(=O)O)c[nH]c12; Abu(4-yl) = O=C([C@H](CC[*:3])N[*:1])[*:2]; dLys(Me3) = C[N+](C)(C)CCCC[C@@H](N)C(=O)O; 3Pal(5-Me) = Cc1cncc(C[C@H](N)C(=O)O)c1; Dab(NMeAc) = CC(=O)N(C)CC[C@H](N)C(=O)O; X9 = CN(CC*)C(=O)CCOCCOCC[N+](C)(C)C; AEF = NCCOc1ccc(C[C@H](N)C(=O)O)cc1; 3Pal = N[C@@H](Cc1cccnc1)C(=O)O; Ethyl(2-guanidino) = N=C(N)NCC*; Lys(Me) = CNCCCC[C@H](N)C(=O)O; Pen = CC(C)(S)[C@H](N)C(=O)O; Thp = NC1(C(=O)O)CCOCC1; Ava = NCCCCC(=O)O; Sar = CNCC(=O)O

Experiments:
[1] = biological target: T1, IL-23R (Homo sapiens, UniProt Q5VWK5); experiment: IL23R Reporter Assay; assay type: cell-based; conditions: HEK293 cells containing IL-23R, IL-12Rβ1 and STAT-inducible luciferase reporter; 10 ng/mL IL-23; 5 h; read-out: IC50
T1 construct: host or cells: HEK293
T1 sequence (Q5VWK5 24-629): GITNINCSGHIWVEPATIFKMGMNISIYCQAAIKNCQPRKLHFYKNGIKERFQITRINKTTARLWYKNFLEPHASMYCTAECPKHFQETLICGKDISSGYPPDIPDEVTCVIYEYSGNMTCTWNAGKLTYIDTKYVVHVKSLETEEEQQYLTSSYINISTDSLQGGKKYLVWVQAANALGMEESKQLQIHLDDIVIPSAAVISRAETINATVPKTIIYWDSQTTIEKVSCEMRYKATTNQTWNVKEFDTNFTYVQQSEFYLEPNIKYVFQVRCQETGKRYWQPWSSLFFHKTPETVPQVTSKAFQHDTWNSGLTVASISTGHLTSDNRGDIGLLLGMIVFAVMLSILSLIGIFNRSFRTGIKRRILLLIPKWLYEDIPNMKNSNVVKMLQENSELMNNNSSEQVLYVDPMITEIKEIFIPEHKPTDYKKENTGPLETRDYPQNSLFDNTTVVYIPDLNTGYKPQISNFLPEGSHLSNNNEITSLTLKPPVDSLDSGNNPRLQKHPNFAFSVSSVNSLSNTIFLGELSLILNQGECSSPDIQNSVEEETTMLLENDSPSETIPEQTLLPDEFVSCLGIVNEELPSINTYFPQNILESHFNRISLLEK
Method: Compounds were serially diluted in 100% (v/v) DMSO) and plated using an Echo acoustic dispenser (Labcyte) into 1536-well non-treated black assay plates (Corning #9146). […] After 5 h at 37° C., 5% CO2, 95% relative humidity, cells were placed at 20° C. and treated with BioGlo reagent (Promega) according to the Manufacturer's instructions. Luminescence was measured on a Pherastar FSX (BMG LabTech).

[2] = biological target: T2, IL-23-stimulated phosphorylated STAT3 in peripheral blood mononuclear cells (PBMCs) (Homo sapiens, UniProt Q5VWK5); experiment: PBMC pSTAT3 Assay; assay type: cell-based; conditions: PBMCs from healthy donors, IL-23 5 ng/mL, 30 minutes, read-out: PBMC pSTAT3 IC50
T2 sequence (Q5VWK5 24-629): T1 sequence (Q5VWK5 24-629)
Method: Cryopreserved peripheral blood mononuclear cells (PBMCs) from healthy donors were thawed and washed twice in ImmunoCult-XF T cell expansion medium (XF-TCEM) supplemented with CTL anti-aggregate wash. The cells were counted, resuspended at 2-6×10^5 cells per mL XF-TCEM supplemented with penicillin/streptomycin and 100 ng/mL IL-1β (BioLegend, 579404), and cultured in tissue culture flasks coated with anti-CD3 (eBioscience, 16-0037-85 or BD Pharmingen, 555329) at 37° C. in 5% CO2. On day 4 of culture, PBMCs were collected, washed twice in RPMI-1640 supplemented with 0.1% BSA (RPMI-BSA), and incubated in RPMI-BSA in upright tissue culture flasks for ˜4 hours at 37° C. in 5% CO2. Following this ‘starvation,’ a total of 6×10^4 cells in 30 μL RPMI-BSA was transferred into each well of a 384-well plate pre-spotted with peptide or DMSO. The cells were incubated for 30 minutes prior to the addition of IL-23 at a final concentration of 5 ng/mL. The cells were stimulated with cytokine for 30 minutes at 37° C. in 5% CO2, transferred onto ice for 10 minutes, and lysed. Cell lysates were stored at −80° C. until phosphorylated STAT3 was measured using the phospho-STAT panel kit (Meso Scale Discovery, K15202D).

Structure (SMILES)	IC50 [1]	IC50 [2]
CC(=O)NCCCC[C@@H]1NC(=O)[C@H](Cc2c[nH]c3c(-c4cccc(NC(C)=O)c4)cccc23)NC(=O)[C@H]([C@@H](C)O)NC(=O)[C@H](CC(N)=O)NC(=O)[C@@H](NC(=O)[C@@H](CCCC[N+](C)(C)C)NC(C)=O)C(C)(C)SSC(C)(C)[C@@H](C(=O)N[C@@H](Cc2ccc(OCCNC(=N)N)cc2)C(=O)N[C@@H](Cc2ccc3cc(O)ccc3c2)C(=O)NC2(C(=O)N[C@@H](CCC(=O)O)C(=O)N[C@@H](CC(N)=O)C(=O)N[C@@H](Cc3cncc(C)c3)C(=O)N(C)CC(N)=O)CCOCC2)NC1=O [compound 11, MeCO-k(Me)3-Pen(3)-N-T-7(3NAcPh)W-K(Ac)-Pen(3)-AEF(G)-6OH2Nal-THP-E-N-5MePyridinAla-Sar-CONH2] (Ac-[dLys(Me3)][Pen]NT[Trp(7-(3-AcNH-Ph))]K(Ac)[Pen]Y(Ethyl(2-guanidino))[2Nal(6-OH)][Thp]EN[3Pal(5-Me)][Sar]-NH2; disulfide 2-7)	< 10 nM	< 0.01 nM
CC(=O)NCCCC[C@@H]1NC(=O)[C@H](Cc2c[nH]c3c(C)cccc23)NC(=O)[C@H]([C@@H](C)O)NC(=O)[C@@H]2CCC(=O)NCCOc3ccc(cc3)C[C@@H](C(=O)N[C@@H](Cc3ccc4cc(O)ccc4c3)C(=O)NC3(C(=O)N[C@@H](CCCCNC(C)=O)C(=O)N[C@@H](CC(N)=O)C(=O)N[C@@H](Cc4cccnc4)C(=O)N(C)CC(N)=O)CCOCC3)NC(=O)[C@@H](NC1=O)C(C)(C)SSC(C)(C)[C@H](NC(C)=O)C(=O)N2 [SEQ ID NO: 414, MeCO-Pen(3)-E(2)-T-7MeW-K(Ac)-Pen(3)-AEF(2)-6OH2Nal-THP-K(Ac)-N-3Pya-Sar-CONH2] (Ac-[Pen]ET[Trp(7-Me)]K(Ac)[Pen][AEF][2Nal(6-OH)][Thp]K(Ac)N[3Pal][Sar]-NH2; disulfide 1-6; lactam 2-7)	< 10 nM	< 0.01 nM
CC(=O)NCCCC[C@@H]1NC(=O)[C@H](Cc2c[nH]c3c(-c4cccc(NC(C)=O)c4)cccc23)NC(=O)[C@H]([C@@H](C)O)NC(=O)[C@H](CC(N)=O)NC(=O)[C@@H](NC(=O)[C@@H](CCCC[N+](C)(C)C)NC(C)=O)C(C)(C)SSC(C)(C)[C@@H](C(=O)N[C@@H](Cc2ccc(OCCN)cc2)C(=O)N[C@@H](Cc2ccc3cc(O)ccc3c2)C(=O)NC2(C(=O)N[C@@H](CCC(=O)O)C(=O)N[C@@H](CC(N)=O)C(=O)N[C@@H](Cc3cccnc3)C(=O)N(C)CC(N)=O)CCOCC2)NC1=O [compound 68, MeCO-k(Me)3-Pen(3)-N-T-7(3NAcPh)W-K(Ac)-Pen(3)-AEF-6OH2Nal-THP-E-N-3Pya-Sar-CONH2] (Ac-[dLys(Me3)][Pen]NT[Trp(7-(3-AcNH-Ph))]K(Ac)[Pen][AEF][2Nal(6-OH)][Thp]EN[3Pal][Sar]-NH2; disulfide 2-7)	< 10 nM	0.01 to 0.1 nM
CC(=O)N(C)CCCC[C@@H]1NC(=O)[C@H](Cc2c[nH]c3c(C)cccc23)NC(=O)[C@H]([C@@H](C)O)NC(=O)[C@H](CC(=O)N(C)C)NC(=O)[C@@H](NC(=O)CCOCCOCC[N+](C)(C)C)C(C)(C)SSC(C)(C)[C@@H](C(=O)N[C@@H](Cc2ccc(OCCN)cc2)C(=O)N[C@@H](Cc2ccc3cc(O)ccc3c2)C(=O)NC2(C(=O)N[C@@H](CCN(C)C(C)=O)C(=O)N[C@@H](CC(N)=O)C(=O)N[C@@H](Cc3cccnc3)C(=O)N(C)CC(=O)N(C)C)CCOCC2)NC1=O [compound 371, cPEG3aCO-Pen(3)-N(N(Me)2)-T-7MeW-K(NMeAc)-Pen(3)-AEF-6OH2Nal-THP-Dab(NMeAc)-N-3Pya-Sar-CON(Me)2] ({Me3N+(CH2)2O(CH2)2O(CH2)2CO}-[Pen]D(NMe2)T[Trp(7-Me)][Lys(Me)](Ac)[Pen][AEF][2Nal(6-OH)][Thp][Dab(NMeAc)]N[3Pal][Sar]-NMe2; disulfide 1-6)	< 10 nM	< 0.01 nM
C[C@@H](O)[C@@H]1NC(=O)[C@H](CC(N)=O)NC(=O)[C@@H]2CCSC[C@H](NC(=O)[C@H](CCC(N)=O)NC(=O)[C@H](Cc3c[nH]c4ccccc34)NC1=O)C(=O)N[C@@H](Cc1ccc(OCCN)cc1)C(=O)N[C@@H](Cc1ccc3cc(O)ccc3c1)C(=O)NC1(CCOCC1)C(=O)N[C@H](C(=O)N[C@@H](CC(N)=O)C(=O)N[C@@H](Cc1cccnc1)C(=O)N(C)CC(N)=O)CCC(=O)NCCCCC(=O)N2 [compound 172] ([Ava][Abu(4-yl)]NTWQC[AEF][2Nal(6-OH)][Thp]EN[3Pal][Sar]-NH2; thioether 2-7; lactam N-11)	< 10 nM	< 0.01 nM

Continued, values first:

IC50 [1]	IC50 [2]	Structure (SMILES)
< 10 nM	< 0.01 nM	CC(=O)NCCCC[C@@H]1NC(=O)[C@H](Cc2c[nH]c3c(-c4cccc(NC(C)=O)c4)cccc23)NC(=O)[C@H]([C@@H](C)O)NC(=O)[C@H](CC(N)=O)NC(=O)[C@@H](NC(=O)[C@@H](CCCNC(=N)N)NC(C)=O)C(C)(C)SSC(C)(C)[C@@H](C(=O)N[C@@H](Cc2ccc(OCCNC(=N)N)cc2)C(=O)N[C@@H](Cc2ccc3cc(O)ccc3c2)C(=O)NC2(C(=O)N[C@@H](CCC(=O)O)C(=O)N[C@@H](CC(N)=O)C(=O)N[C@@H](Cc3cncc(C)c3)C(=O)N(C)CC(N)=O)CCOCC2)NC1=O [compound 15, MeCO-r-Pen(3)-N-T-7(3NAcPh)W-K(Ac)-Pen(3)-AEF(G)-6OH2Nal-THP-E-N-5MePyridinAla-Sar-CONH2] (Ac-[dR][Pen]NT[Trp(7-(3-AcNH-Ph))]K(Ac)[Pen]Y(Ethyl(2-guanidino))[2Nal(6-OH)][Thp]EN[3Pal(5-Me)][Sar]-NH2; disulfide 2-7)
< 10 nM	0.01 to 0.1 nM	CC(=O)N[C@@H]1C(=O)N[C@@H](CC(=O)N(C)C)C(=O)N[C@@H]([C@@H](C)O)C(=O)N[C@@H](Cc2c[nH]c3c(C)cccc23)C(=O)N[C@@H](CCCCN(C)C(C)=O)C(=O)N[C@H](C(=O)N[C@@H](Cc2ccc(OCCN(C)C(=O)CCOCCOCC[N+](C)(C)C)cc2)C(=O)N[C@@H](Cc2ccc3cc(O)ccc3c2)C(=O)NC2(C(=O)N[C@@H](CCCCN(C)C(C)=O)C(=O)N[C@@H](CC(N)=O)C(=O)N[C@@H](Cc3cccnc3)C(=O)N(C)CC(=O)NCCOCCOCC[N+](C)(C)C)CCOCC2)C(C)(C)SSC1(C)C [compound 315, MeCO-Pen(3)-N(NMe2)-T-7MeW-K(NMeAc)-Pen(3)-AEF(NMePEG3a)-6OH2Nal-THP-K(NMeAc)-N-3Pya-Sar-CONH(PEG3a)] (Ac-[Pen]D(NMe2)T[Trp(7-Me)][Lys(Me)](Ac)[Pen]Y(X9)[2Nal(6-OH)][Thp][Lys(Me)](Ac)N[3Pal][Sar]-{NH(CH2CH2O)2CH2CH2NMe3+}; disulfide 1-6)
< 10 nM	< 0.01 nM	CC(=O)N(C)CCCC[C@@H]1NC(=O)[C@H](Cc2c[nH]c3c(C)cccc23)NC(=O)[C@H]([C@@H](C)O)NC(=O)[C@H](CC(N)=O)NC(=O)[C@@H](NC(=O)CCOCCOCC[N+](C)(C)C)C(C)(C)SSC(C)(C)[C@@H](C(=O)N[C@@H](Cc2ccc(OCCN)cc2)C(=O)N[C@@H](Cc2ccc3cc(O)ccc3c2)C(=O)NC2(C(=O)N[C@@H](CCC(=O)N(C)C)C(=O)N[C@@H](CC(N)=O)C(=O)N[C@@H](Cc3cccnc3)C(=O)N(C)CC(N)=O)CCOCC2)NC1=O [compound 392, cPEG3aCO-Pen(3)-N-T-7MeW-K(NMeAc)-Pen(3)-AEF-6OH2Nal-THP-Q(N(Me)2)-N-3Pya-Sar-CONH2] ({Me3N+(CH2)2O(CH2)2O(CH2)2CO}-[Pen]NT[Trp(7-Me)][Lys(Me)](Ac)[Pen][AEF][2Nal(6-OH)][Thp]E(NMe2)N[3Pal][Sar]-NH2; disulfide 1-6)
< 10 nM	< 0.01 nM	CC(=O)NCCCC[C@@H]1NC(=O)[C@H](Cc2c[nH]c3c(C)cccc23)NC(=O)[C@H]([C@@H](C)O)NC(=O)[C@H](CC(N)=O)NC(=O)[C@@H]2CCSC[C@H](NC1=O)C(=O)N[C@@H](Cc1ccc(OCCN)cc1)C(=O)N[C@@H](Cc1ccc3cc(O)ccc3c1)C(=O)NC1(CCOCC1)C(=O)N[C@H](C(=O)N[C@@H](CC(N)=O)C(=O)N[C@@H](Cc1cccnc1)C(=O)N(C)CC(N)=O)CCC(=O)NCCCCC(=O)N2 [compound 171] ([Ava][Abu(4-yl)]NT[Trp(7-Me)]K(Ac)C[AEF][2Nal(6-OH)][Thp]EN[3Pal][Sar]-NH2; thioether 2-7; lactam N-11)
